In publication PMC7016952, “Characterization of the Menin-MLL Interaction as Therapeutic Cancer Target” (Cancers, 2020):
pIC50: −log10 of the molar value.

Tests used:
[1] = cited from earlier work
[2] = test system: MCF7 xenograft; assay: MCF7 xenograft efficacy; type: in vivo, mice
Method: (§1) Tumor cells were injected subcutaneously into the flanks of 6- to 9-week old animals. Efficacy studies in xenograft models were performed at Bayer or EPO GmbH (Berlin-Buch, Germany) using NMRI nu/nu, SCID, BALB/c Nude female mice or SCID male mice (VCaP tumors). All animal studies were conducted in accordance with the animal welfare laws and were approved by the State Office for Health and Social Affairs Berlin (LAGeSo). Experiments were run under the animal license B3600a0007. Compound treatment started at a predefined tumor size or burden or at a predefined day after cell inoculation. BAY-155 was administered orally (p.o.) at various doses and regorafenib, tamoxifen and enzalutamide (resuspended in PEG400/H2O 6/4 or PEG400/EtOH 9/1) were used as control treatment for RKO, MCF7 and VCaP xenografts, respectively. Subcutaneous tumor volumes were determined by caliper measurement.

[3] = test system: MCF7 cells; assay: RNA-seq after E2 stimulation, MCF7; type: cell-based, human
Method: (§2) Total RNA was isolated using RNeasy-Plus Mini kit (Qiagen, Hilden, Germany). RNA (1 μg) was reverse transcribed using SuperScript III First-Strand Synthesis SuperMix (Life Technologies) and the generated cDNA was analyzed with commercial primers (Supplementary Materials Table S1) by qRT-PCR using TaqMan Fast Advanced Master Mix (Life Technologies). For the RNA-seq study, ZR-75-1, BT474, PANC-1, MiaPaCa-2, 22RV1, JMSU-1, DLD-1, SW1463, LoVo and G401 cells were treated with 5 µM BAY-155 or DMSO for 48 h prior to RNA extraction. After 48 h of 5 µM BAY-155 or DMSO treatment, MCF7, VCaP and LNCaP cells were stimulated for further 12 h with 0.1 nM of E2 (ß-Estradiol) or 1 nM R1881, respectively. MCF7, VCaP and LNCaP cells were cultured in starvation medium (containing 5 µM BAY-155 or DMSO) 6 h before stimulation. RNA was isolated using RNeasy-Plus Mini kit (Qiagen). The purified RNA was used for library preparation (Illumina, San Diego, CA, USA. TruSeq Stranded mRNA Kit) and the generated libraries were sequenced (Illumina, HiSeq2500 HTv4, SR, dual-indexing, 50 cycles).
(§3) RNA-seq reads were aligned to hg38 using STAR aligner. Protein-coding genes with more than 10 reads in more than three samples were used for the analysis (total samples N = 86; genes N = 13,003). DESeq2 was used to find genes differentially expressed upon treatment by the menin inhibitor in each cell line compared to DMSO or hormonal treatment (for MCF-7, LNCaP and VCaP cell lines). […] GSEA analysis was run on the pre-ranked list based on logFC in prostate (VCaP and LNCaP) and breast (MCF7) cell lines. Data are available at GEO under accession number GSE136272.

[4] = test system: CYP enzymes; conditions: cited from earlier work
[5] = test system: JMSU-1 cells; assay: RNA-seq differential gene expression, JMSU-1; type: cell-based; conditions: JMSU-1, 5 µM, 48 h
Method: as §2
(§4) RNA-seq reads were aligned to hg38 using STAR aligner. Protein-coding genes with more than 10 reads in more than three samples were used for the analysis (total samples N = 86; genes N = 13,003). […]

[6] = test system: MEIS1, MNDA and CD11b expression in MV4;11 and MOLM-13 xenografts; assay: Ex vivo gene expression in MV4;11 and MOLM-13 xenografts; set-up: species or system mice; conditions: 17 (MV4;11) or 11 (MOLM-13) days of treatment
Method: as §2
Tumors were harvested, dissociated and total RNA was extracted using the TissueLyser (Qiagen, Hilden, Germany) together with RNeasy-Plus Mini kit according to the manufacturer protocol.

[7] = test system: MV4;11 cells; assay: Proliferation inhibition, MV4;11; type: cell-based, human; conditions: MV4;11
[8] = test system: LNCaP cells; assay: RNA-seq after R1881 stimulation, LNCaP; type: cell-based
Method: as §2, §3

[9] = test system: MOLM-13 xenograft; assay: MOLM-13 xenograft efficacy; type: in vivo, mice; conditions: p.o.
Method: as §1

[10] = test system: T1, menin protein levels in VCaP cells; assay: Western blot of menin protein level; type: cell-based, human; conditions: Western blot
T1 construct: endogenous in cells; host or cells: VCaP

[11] = test system: VCaP cells; assay: RNA-seq after R1881 stimulation, VCaP; type: cell-based, human
Method: as §2, §3

[12] = test system: 401 cancer cell lines derived from 28 tissues of origin; assay: Cell line proliferation panel (OmniScreen, 401 cancer cell lines); type: cell-based
Method: The characterization of proliferation effects in 401 cancer cell lines was performed on the OmniScreen™ platform (CrownBio). Briefly, cells were seeded at the appropriate density for a five-day growth period and treated with BAY-155 (10 µM maximal concentration with 3.16-fold serial dilutions with 9 dose levels) or left untreated as control. For determination of viability the CellTiter-Glo® Luminescent Cell Viability Assay (Promega, Madison, WI, USA) was used. For absolute IC50 determination, a dose-response curve was fitted using a nonlinear regression model with a sigmoidal dose-response using GraphPad Prism 5.0. The surviving rate (%) = (LumTest-LumMedium control)/(LumNon-treated-LumMedium control) × 100%.

[13] = test system: MEIS1, MNDA and CD11b expression in MV4;11 and MOLM-13 cells; assay: qRT-PCR of hematopoietic differentiation genes; type: cell-based, human; conditions: four days of treatment, in comparison to MI-503
Method: as §2

[14] = test system: PANC-1 cells; assay: RNA-seq differential gene expression, PANC-1; type: cell-based; conditions: PANC-1, 5 µM, 48 h
Method: as §2, §4

Cc1c(CN2CCC3(CC2)CN(c2ncnc4sc(CC(F)(F)F)cc24)C3)ccc2c1cc(C#N)n2CC(N)=O [BAY-155]
CLblood (metabolic stability in rat hepatocytes, as worded in text) [1]: 18.3 mL/min/kg | tumor volume and tumor weight [2]: no significant effects | GSEA of estradiol (E2) up- and down-regulated gene sets ([3]; MCF7): slight reverse regulation | E2 down-regulated genes significantly changed ([3]; MCF7, 5 µM, E2): 13 genes | E2 up-regulated genes significantly changed ([3]; MCF7, 5 µM, E2): 26 genes | inhibition of CYP enzymes (in words) [4]: no inhibition | number of differentially expressed genes [5]: 665 genes | MEIS1 expression ex vivo [6]: concentration-dependent and significant down-regulation | MNDA and CD11b expression ex vivo [6]: up-regulation | fold improved proliferation inhibition vs MI-503 [7]: 2.8 fold | GSEA of androgen-regulated gene sets [8]: significant reversal of androgen-induced gene expression changes | genes down-regulated by androgen stimulation that were reversed ([8]; 5 µM, R1881): 141 genes | genes up-regulated by androgen stimulation that were reversed ([8]; 5 µM, R1881): 24 genes | tumor volume [9]: dose-dependent inhibition of tumor volume | tumor weight [9]: significant reduction of tumor weight | menin protein levels [10]: reduce menin protein levels in a time- and concentration-dependent manner | GSEA of androgen-regulated gene sets [11]: significant reversal of androgen-induced gene expression changes | genes down-regulated by androgen stimulation that were elevated ([11]; 5 µM, R1881): 182 genes | genes up-regulated by androgen stimulation that were repressed ([11]; 5 µM, R1881): 36 genes | proliferation of cancer models originating from breast, prostate or bone [12]: not affected | sensitivity of all tested MLL-AF4, MLL-AF9 and MLL-TD leukemia cell lines [12]: sensitive | pIC50 ([12]; 120 h, read-out: IC50 in the vast majority of tested cell line models): < 5.00 | sensitivity of KYSE-150 and RKO cells in the in vitro screen ([12]; IC50 in similar range to MV4;11 and MOLM-13): highly sensitive | share of liver-derived models with reduced proliferation ([12]; n = 33, IC50 below 5 µM taken as significant): 30% | share of blood cell-derived models with reduced proliferation ([12]; n = 73, IC50 below 5 µM taken as significant): 26% | CD11b and MNDA gene expression [13]: up-regulation | MEIS1 gene expression [13]: stronger expression down-regulation | number of differentially expressed genes [14]: 346 genes
